Patent publication US10307413B2, “Tetrahydro- and dihydro-isoquinoline PRMT5 inhibitors and uses thereof” (Epizyme, Inc., priority 2013, dated 2019)
pEC50, pIC50: −log10 of the molar value. Where two headings read alike, the source gives them in different places.

Assays:
PRMT5/MEP50 = PRMT5/MEP50 (Homo sapiens (Human), UniProt O14744); experiment: PRMT5 Biochemical Assay (PRMT5/MEP50 enzyme assay on peptide substrate, 3H-SAM Flashplate)
Outline: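 Radiometric methylation of a biotin-tagged H4(1-15) peptide by human PRMT5/MEP50 from baculovirus/Sf9, with ³H-SAM incorporation read on streptavidin Flashplates. Buffer: Bicine pH 7.6, TCEP, BSG, Tween20; compound preincubated 30 min at 25 °C; stopped with 600 µM final unlabeled SAM. DMSO and SAH controls; IC50 from fitted % inhibition.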

[1] = test system: symmetric di-methyl arginine in Z-138 cells; experiment: Z-138 Methylation Assay (In Cell Western for symmetric di-methyl arginine and DNA content); format: cell-based; settings: Homo sapiens, read-out: ICW EC50
Outline: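 Z-138 cells (50,000 cells/mL) treated with compound 96 h at 37 °C, then fixed and stained for symmetric di-methyl arginine (800 nm) with DRAQ5 DNA counterstain (700 nm) on Licor Odyssey.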

Z-138 cell line = experiment: Z-138 Proliferation Assay (Cell Titer Glo, 5 days); format: cell-based; settings: Homo sapiens, read-out: Proliferation EC50
Outline: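 Z-138 cells exposed 5 days at 37 °C, 5% CO2 to nine-point 3-fold dilutions (final top 20 μM, 0.2% DMSO), in triplicate. Viability read as ATP by CellTiter-Glo luminescence; IC50 from 4-parameter fit of normalized dose-response curves.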

[2] = 120 h, Z-138 cells, 5 days, Cell Titer Glo

Chain of PRMT5/MEP50 (O14744 other isoform, or with tags, fused parts or gaps): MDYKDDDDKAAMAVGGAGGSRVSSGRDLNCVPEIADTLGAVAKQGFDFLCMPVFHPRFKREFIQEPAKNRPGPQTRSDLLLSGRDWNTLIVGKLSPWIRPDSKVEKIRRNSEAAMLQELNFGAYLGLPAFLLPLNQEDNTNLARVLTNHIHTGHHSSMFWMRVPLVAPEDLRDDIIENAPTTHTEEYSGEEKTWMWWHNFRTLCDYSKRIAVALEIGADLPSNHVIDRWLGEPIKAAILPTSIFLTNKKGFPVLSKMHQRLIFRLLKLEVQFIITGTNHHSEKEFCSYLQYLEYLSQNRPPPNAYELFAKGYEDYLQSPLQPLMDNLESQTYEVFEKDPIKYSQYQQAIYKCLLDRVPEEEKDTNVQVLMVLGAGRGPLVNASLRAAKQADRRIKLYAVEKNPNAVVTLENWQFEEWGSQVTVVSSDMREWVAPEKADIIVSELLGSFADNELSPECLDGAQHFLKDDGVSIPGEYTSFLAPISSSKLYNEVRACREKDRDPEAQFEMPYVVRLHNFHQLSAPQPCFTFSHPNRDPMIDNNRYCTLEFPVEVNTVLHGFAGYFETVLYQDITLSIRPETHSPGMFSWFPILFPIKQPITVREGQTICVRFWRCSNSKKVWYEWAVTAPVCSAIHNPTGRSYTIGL
Chain of PRMT5/MEP50 (Q9BQA1 other isoform, or with tags, fused parts or gaps partner): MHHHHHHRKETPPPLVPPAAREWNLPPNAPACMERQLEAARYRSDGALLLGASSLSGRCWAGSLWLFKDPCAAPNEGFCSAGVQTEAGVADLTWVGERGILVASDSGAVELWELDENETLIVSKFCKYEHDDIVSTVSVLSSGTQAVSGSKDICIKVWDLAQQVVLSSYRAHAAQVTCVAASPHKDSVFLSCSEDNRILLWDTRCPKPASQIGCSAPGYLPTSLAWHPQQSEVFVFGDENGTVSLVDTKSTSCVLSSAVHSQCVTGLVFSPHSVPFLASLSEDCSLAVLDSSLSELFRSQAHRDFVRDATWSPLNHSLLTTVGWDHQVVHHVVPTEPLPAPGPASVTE

| SMILES | pIC50 (PRMT5/MEP50) | pEC50 [1] | pEC50 (Z-138 cell line; 120 h, Z-138 cells, 5 days) | pIC50 (PRMT5/MEP50; PRMT5 biochemical assay) | pEC50 ([1]; In Cell Western methylation) | pEC50 (Z-138 cell line; [2]) | pEC50 (Z-138 cell line; Z-138, 120 h) |
| --- | --- | --- | --- | --- | --- | --- | --- |
| O=C(NC[C@H](O)CN1CCc2ccccc2C1)c1ccnc(Nc2cc[nH]n2)c1 [Compound 381] | > 7.00 | > 7.00 | 5.00 to 6.00 | – | – | – | – |
| CC(C(O)CNC(=O)c1cc(NC2COC2)ncn1)N1CCc2ccccc2C1 (stereo not drawn) [Compound 607] | – | – | – | 5.00 to 6.00 | < 6.00 | < 5.30 | – |
| CCc1nc(NC2CNC2)cc(C(=O)NC[C@H](O)CN2CCc3ccccc3C2)n1 [Compound 487] | – | – | – | > 7.00 | 6.00 to 7.00 | 5.00 to 6.00 | – |
| CCS(=O)(=O)CCN1CCC(Nc2cc(C(=O)NC[C@H](O)CN3CCc4ccccc4C3)ncn2)CC1 [Compound 640] | – | – | – | > 7.00 | > 7.00 | – | 6.00 to 7.00 |
| O=C(NC[C@H](O)CN1CCc2ccccc2C1)c1cnnc(NC2CCOCC2)c1 [Compound 693] | – | – | – | > 7.00 | > 7.00 | 6.00 to 7.00 | – |
| CC(=O)N1CC(Nc2cncc(C(=O)NC[C@H](O)CN3CCc4ccccc4C3)c2)C1 [Compound 444] | – | – | – | > 7.00 | > 7.00 | 6.00 to 7.00 | – |
| COCCN(CCOC)[C@H]1C[C@@H](Nc2cc(C(=O)NC[C@H](O)CN3CCc4ccccc4C3)ncn2)C1 [Compound 562] | – | – | – | > 7.00 | > 7.00 | 6.00 to 7.00 | – |
| O=C(NC[C@H](O)CN1CCc2ccccc2C1)c1cc(N[C@H]2CC[C@H](O)CC2)ncn1 [Compound 585] | – | – | – | > 7.00 | > 7.00 | 6.00 to 7.00 | – |
| CC(C)(O)CNCC1CN2C=NC(C(=O)NC[C@H](O)CN3CCc4ccccc4C3)=CC2=N1 (stereo partly drawn) [Compound 603] | – | – | – | 6.00 to 7.00 | < 6.00 | 5.00 to 6.00 | – |
| O=C(NC[C@H](O)CN1CCc2ccccc2C1)c1cccc2ccccc12 [Compound 295] | > 7.00 | > 7.00 | 5.00 to 6.00 | – | – | – | – |
| CC(O)(CNC(=O)c1cc(NC2CCN(C(=O)C3CC3)CC2)ncn1)CN1CCc2ccccc2C1 (stereo not drawn) [Compound 650] | – | – | – | > 7.00 | > 7.00 | 5.00 to 6.00 | – |
| O=C(NC[C@H](O)CN1CCc2ccccc2C1)c1cc(N[C@H]2C[C@@H](C(=O)N3CCCCC3)C2)ncn1 [Compound 519] | – | – | – | > 7.00 | > 7.00 | 6.00 to 7.00 | – |
| CC(=O)N(C)[C@H]1CC[C@H](Nc2cc(C(=O)NC[C@H](O)CN3CCc4ccccc4C3)ncn2)CC1 [Compound 671] | – | – | – | > 7.00 | > 7.00 | > 7.00 | – |
| CO[C@H]1CC[C@H](Nc2cc(C(=O)NC[C@H](O)CN3CCc4ccccc4C3)ncn2)CC1 [Compound 586] | – | – | – | > 7.00 | > 7.00 | > 7.00 | – |
| Cc1cnc(NC2CNC2)cc1C(=O)NC[C@H](O)CN1CCc2ccccc2C1 [Compound 341] | > 7.00 | < 6.00 | < 4.70 | – | – | – | – |
| CC(=O)N(C)[C@H]1CC[C@@H](Nc2cc(C(=O)NC[C@H](O)CN3CCc4ccccc4C3)ncn2)CC1 [Compound 632] | – | – | – | > 7.00 | > 7.00 | 6.00 to 7.00 | – |
| CCNCCOc1ccc(C(=O)NC[C@H](O)CN2CCc3ccccc3C2)cc1 [Compound 391] | > 7.00 | > 7.00 | 5.00 to 6.00 | – | – | – | – |
| O=C(NC[C@H](O)CN1CCc2ccccc2C1)c1cc(NC2CC3(COC3)C2)ncn1 [Compound 557] | – | – | – | > 7.00 | > 7.00 | > 7.00 | – |
| CNC(=O)[C@H]1C[C@H](Nc2cc(C(=O)NC[C@H](O)CN3CCc4ccccc4C3)ncn2)C1 [Compound 506] | – | – | – | > 7.00 | > 7.00 | 6.00 to 7.00 | – |
| O=C(NC[C@H](O)CN1CCc2ccccc2C1)c1cc(OC2CNC2)ncn1 [Compound 439] | – | – | – | > 7.00 | 6.00 to 7.00 | 4.30 to 5.00 | – |
| CN(CCO)c1nc(NC2COC2)cc(C(=O)NC[C@H](O)CN2CCc3ccccc3C2)n1 [Compound 495] | – | – | – | > 7.00 | > 7.00 | 6.00 to 7.00 | – |
| O=C(NC[C@H](O)CN1CCc2ccccc2C1)c1cc(NC2CCN(C(=O)C3CC3)CC2)ncn1 [Compound 418] | – | – | – | > 7.00 | > 7.00 | > 7.00 | – |
